The source of these data is patent US4536335A, “Carbapenem antibiotics” (Bristol-Myers Company, priority 1983, dated 1985).

SMILES strings stand for the structures. Converted amounts (≈) assume the structure as drawn.

One data set has as its system P. mirabilis A-9900. Nature of the data set: In vitro MIC, tube dilution. It is filed as cell-based. The note with it: Proteus mirabilis, A9900, tube dilution, Nutrient Broth, overnight incubation at 37° C.; additional data table.
For the next data set, the system named is S. pneumoniae A-9585. As to the kind of experiment: In vitro MIC, tube dilution. Conditions: Streptococcus pneumoniae, A9585, Nutrient Broth, overnight incubation at 37° C., additional data table. It is filed as cell-based.
A further data set has as its system E. coli A20341-1. As to the kind of experiment: In vitro MIC, tube dilution. It is filed as cell-based. Conditions: Escherichia coli, A203411, tube dilution, Nutrient Broth, overnight incubation at 37° C.; additional data table.
The next data set relates to S. faecalis A20688. As to the kind of experiment: In vitro MIC, tube dilution. It is filed as cell-based. Conditions: Enterococcus faecalis, A20688, tube dilution, Nutrient Broth, overnight incubation at 37° C.; additional data table.
For a further data set, the system named is E. cloacae A-9659. As to the kind of experiment: In vitro MIC, tube dilution. Conditions: Enterobacter cloacae, A9659, tube dilution, Nutrient Broth, overnight incubation at 37° C.; additional data table. It is filed as cell-based. The source says:
N-formimidoyl thienamycin was included as a comparison compound.

Data set [1] in a line: Blood levels in mice after intramuscular administration. The data set is classed as in vivo. The note with it: mouse, blood, im, 20 mg/kg, intramuscular dose of 20 mg/kg. The text has this:
Compounds were solubilized in 0.1 M phosphate buffer pH 7. Values are fro
a single test; 4 mice used per compound.
*t1/2 refers to halflife in minutes
**AUC refers to the area under the blood concentrationtime curve
(§1) Also shown is the urinary recovery in the mice.
Compounds were solubilized in 0.1 M phosphate buffer, pH 7.
Values based on a single test; 4 mice per compound.
*T1/2 refers to halflife in minutes

A short description of data set [2]: Urinary recovery after intramuscular administration to mice. It is filed as in vivo. Conditions: mouse, urine, im, 20 mg/kg, intramuscular dose of 20 mg/kg, 0-6 hour collection, read-out: Urine Recovery. Here is the method:
Compounds were solubilized in 0.1 M phosphate buffer pH 7. Values are from a single test; 4 mice per compound.
as §1
***Recovery based on 0-6 hour collection

On to `C[C@@H](O)[C@H]1C(=O)N2C(C(=O)[O-])=C(SCC[N+]3(C)CCN(C)CC3)C[C@H]12` [Example 4, (5R,6S)3-[2-(1,4-dimethyl-1-piperazinium)-ethylthio]-6-[1-(R)-hydroxyethyl]-7-oxo-1-azabicyclo-[3.2.0]hept-2-ene-2-carboxylate], for which the MIC with P. mirabilis A-9900 amounted to 0.25 µg/mL (≈ 0.677 µM); with S. pneumoniae A-9585, 0.004 µg/mL (≈ 0.0108 µM); in the data set on E. coli A20341-1, 0.13 µg/mL (≈ 0.352 µM); with S. faecalis A20688, 2 µg/mL (≈ 5.41 µM); in the data set on E. cloacae A-9659, 1 µg/mL (≈ 2.71 µM). The compound further returned a Cmax in data set [1] of 17300 ng/mL. Also, the AUC in data set [1] (read-out: Blood AUC) was 7600 ng·h/mL. Also, the half-life in data set [1] (read-out: Blood T1/2) is 12 min. The dose excreted at 6 h in data set [2] was determined as 33 ± 11%.
